Here are results for 19 compounds from patent US20110071146A1, “17BetaHSD Type 5 Inhibitor” (ASTELLAS PHARMA INC., priority 2006, published 2011).

The target of one data set is T1, human 17βHSD type 3 (Homo sapiens, UniProt P37058).
T1 construct: A full-length cDNA encoding human 17βHSD type 3 used in the pharmacological test; made in house; host or cells: human fetus kidney-derived 293 cells (transfected; supernatant of disrupted cells, not purified)
T1 sequence (P37058 1-310): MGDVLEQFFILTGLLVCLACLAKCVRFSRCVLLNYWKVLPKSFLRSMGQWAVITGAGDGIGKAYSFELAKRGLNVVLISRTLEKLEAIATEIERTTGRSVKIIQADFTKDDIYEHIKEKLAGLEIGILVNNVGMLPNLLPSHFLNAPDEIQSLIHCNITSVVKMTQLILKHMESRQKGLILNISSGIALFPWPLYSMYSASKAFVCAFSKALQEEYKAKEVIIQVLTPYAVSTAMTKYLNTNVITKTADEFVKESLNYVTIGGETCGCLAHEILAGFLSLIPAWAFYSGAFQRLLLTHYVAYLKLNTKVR
Briefly: Measurement of enzyme activity of human 17βHSD type 3 (testosterone production from androstenedione, DELFIA). The data set is classed as biochemical. Conditions: human 17βHSD type 3 (293 cell supernatant as enzyme source). The text has this:
(§1) An excellent selective inhibitory activity against human 17βHSD type 5 of the compounds of the present invention was confirmed by a test method described below. Further, the test may be performed by referring to the details of test procedure described in Maniatis, T. et al., Molecular Cloning—A Laboratory Manual Cold Spring Harbor Laboratory, NY and the like (1982). In addition, a gene encoding human 17βHSD type5 and type3 described in 1 and 2 below, and human 17βHSD type5 and type3 may be obtained by the method described in Mol. Endocrinol, 1971-1984, 11(13) (1997).
A full-length cDNA encoding human 17βHSD type 3 used in the pharmacological test of the present invention was obtained by the PCR method using a cDNA derived from human testis as a template. The nucleotide sequence of the obtained cDNA was analyzed by the dideoxyterminator method, and the clone matched with the known human 17βHSD type 3 sequence (GenBank accession No. BC034281) was selected. Subsequently, a human fetus kidney-derived cell line, 293 cells was transformed with a plasmid containing the cDNA, and the cells were collected 24 hours later. The collected cells were then disrupted in a phosphate buffer solution containing 5% glycerol (500 μL per 100 mm-dish of a phosphate buffer solution (pH 7.4, 200 mM) containing 5% glycerol) and centrifuged (16000 rpm, 5 min, 4° C.), and the supernatant was used as an enzyme source.
(§2) Enzyme activity was measured referring to Trevor M. Penning, et al., Biochem. J., 351, 67-77, (2000). Specifically, using a 100 mM potassium phosphate buffer (pH 6.0), (1) the enzyme purified in above 1 at a final concentration of 10 μg/mL, (2) androstenedione at a final concentration of 300 nM, (3) NADPH at a final concentration of 200 μM and (4) a test substance at a final concentration of 3 μM were mixed to react at room temperature for 2 hours, and then the amount of testosterone produced was measured using DELFIA (registered trademark) Testosterone Reagents R050-201 (PerkinElmer). The measurement was performed in accordance with the attached instructions. The amount of reduction of testosterone production in the presence of the compound was obtained as a relative value with respect to the amount of testosterone in the absence of the enzyme set at 0% and the amount of testosterone produced in the absence of the compound set at 100%. Then, IC50 values were calculated by the Logistic regression method.

The target in another data set is T2, human 17βHSD type 5 (Homo sapiens, UniProt P42330).
T2 construct: A full-length cDNA encoding human 17βHSD type 5 used in the pharmacological test; made in house; host or cells: Escherichia coli BL21
T2 sequence (P42330 1-323): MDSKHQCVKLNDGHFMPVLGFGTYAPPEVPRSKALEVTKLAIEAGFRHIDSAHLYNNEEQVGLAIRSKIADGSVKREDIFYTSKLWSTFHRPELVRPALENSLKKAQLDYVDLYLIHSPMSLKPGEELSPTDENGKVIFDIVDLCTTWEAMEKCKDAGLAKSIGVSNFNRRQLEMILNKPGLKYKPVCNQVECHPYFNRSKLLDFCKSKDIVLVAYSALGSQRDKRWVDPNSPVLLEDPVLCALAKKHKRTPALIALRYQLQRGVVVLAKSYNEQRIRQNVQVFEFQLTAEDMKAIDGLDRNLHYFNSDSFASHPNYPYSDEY
The experiment in a line: Measurement of enzyme activity of human 17βHSD type 5 (testosterone production from androstenedione, DELFIA). The data set is classed as biochemical. To be noted: for IC50: purified human 17βHSD type 5, androstenedione 300 nM, NADPH 200 μM, pH 6.0, room temperature 2 hours.
Text: as §1
A full-length cDNA encoding human 17βHSD type 5 used in the pharmacological test of the present invention was obtained by the PCR method using a cDNA derived from a human lung cancer-derived cell line, A549 cells as a template. The nucleotide sequence of the obtained cDNA was analyzed by the dideoxyterminator method, and the clone matched with the known human 17βHSD type 5 sequence (GenBank accession No. NM_003739) was selected. Escherichia coli BL21 was transformed with a plasmid containing the cDNA, cultured on a large scale, and the proteins were purified by using GSTrapFF column (Amersham) and PreScissionProtease (Amersham). The purification was performed in accordance with the instructions attached to the GSTrapFF column.
as §2

Data set [1] is described as follows: Measurement of concentrations of human 17βHSD type 5 inhibitor compounds in mouse tissues (plasma, prostate) after oral administration. The data set is classed as in vivo. To be noted: male ICR mice, 2 hours after administration. How it is done:
The concentrations in plasma and in prostate were measured after oral administration of a test substance. Male 8 to 15-week old ICR mice were used, and a solution or suspension obtained by adding 1 N NaOH solution and water in an equivalent amount to a test substance and stirring was used as an administration solution. The administration solution was administered orally once to mice, and after 2 hours, blood and a prostate were collected under ether anesthesia. The prostate was frozen and stored at −80° C. until measurement. The blood was centrifuged (3000 rpm, 15 min, 4° C.) after the addition of a minor amount of heparin, and the upper layer was collected as plasma and frozen and stored at −80° C. until measurement. 0.1 mL of the plasma was subjected to protein degeneration with 0.1 mL of acetonitrile and then centrifuged (15000 rpm, 7 min, 4° C.) to remove proteins and the supernatant thus obtained was used as an HPLC sample. The prostate was homogenized in a phosphate buffer solution (200 mM, pH 7.4, 0.5 mL), and then the whole volume was added to 3 mL of t-butyl methyl ether to perform extraction. The solvent was evaporated in a stream of nitrogen (15 min, 45° C.). The residue was resuspended in a Tris buffer solution (12.5 mM, pH 7.4, 0.3 mL) containing 2% BSA, and an equal volume of acetonitrile (0.3 mL) was added. Protein was removed as in the case of plasma and the supernatant was used as an HPLC measurement sample. Measurement was performed by an ordinary method using liquid chromatography (HPLC).
Column: STR ODS-II (registered trademark), particle size: 5 μm, inner diameter: 4.6 mm, length: 150 mm, joint type: Waters Mobile phase: 20 mM ammonium acetate:acetonitrile=7:3 or 17 mM ammonium acetate:acetonitrile=6:4 Flow rate: 1 mL/min Column temperature: 40° C. Injection volume: 50 μL

In a further data set the test system is 5α-reductase. Conditions: patients with BPH; cited from earlier work.
Setting [2] is: plasma, oral single dose 100 mg/kg, read-out: Conc (plasma).
Setting [3] is: plasma, oral single dose 300 mg/kg, read-out: Conc (plasma).
[4] abbreviates: prostate, oral single dose 100 mg/kg, read-out: Conc (prostate).
[5] abbreviates: prostate, oral single dose 300 mg/kg, read-out: Conc (prostate).

Each structure is given as a SMILES string. Read-outs that look alike come from different tables or passages of the source. Bounds are passed on as bounds.

Turning to `Cc1cc(Br)ccc1S(=O)(=O)n1cc(C(=O)O)c2cccc(Cl)c21` [Example 194], the values for the IC50 at human 17βHSD type 3 and against human 17βHSD type 5 were 6.2 µM and 190 nM, respectively.

With `O=C(O)c1cn(S(=O)(=O)c2ccc(Br)cc2)c2c1CCCC2` [Example 208], the IC50 was above 10 µM against human 17βHSD type 3 and 2200 nM at human 17βHSD type 5.

Consider `O=C(O)c1cn(S(=O)(=O)c2ccc(Br)cc2)c2c(Cl)cccc12` [Example 192], for which the IC50 against human 17βHSD type 3 is above 10 µM; against human 17βHSD type 5, 69 nM. The concentration at 2 h in data set [1] (setting [2]) was 57.3 µM; in data set [1] (setting [3]), 126 µM; in data set [1] (setting [4]), 9.4 µM; in data set [1] (setting [5]) it was 24.9 µM.

Turning to `CC(C)(C)NC(=O)[C@H]1CC[C@H]2[C@@H]3CC[C@H]4NC(=O)C=C[C@]4(C)[C@H]3CC[C@]12C` [finasteride], in the data set on 5α-reductase, the “concentration of DHT in the prostate after administration, relative to the concentration before the administration” value is “about 20%” and the “increase of the concentration of testosterone in the prostate” value is recorded as 4 fold.

For `O=C(O)c1cn(S(=O)(=O)c2ccccc2)c2c(Cl)cccc12` [Example 191], the IC50 against human 17βHSD type 3 was above 10 µM; on human 17βHSD type 5, 300 nM.

Regarding `O=C(O)c1cn(S(=O)(=O)c2ccccc2)c2ccc(Cl)cc12` [Example 190], the results for the IC50 against human 17βHSD type 3 and on human 17βHSD type 5 were above 10 µM and 690 nM, respectively. For the same compound, the concentration at 2 h in data set [1] (setting [3]) is 226 µM; in data set [1] (setting [5]) it was 37.4 µM.

In the case of `O=C(O)c1cn(S(=O)(=O)c2ccccc2)c2c(F)cccc12` [Example 187], the IC50 was above 10 µM at human 17βHSD type 3 and 2200 nM against human 17βHSD type 5. Further, the concentration at 2 h was found to be 69.7 µM in data set [1] (setting [2]) and 12.2 µM in data set [1] (setting [4]).

Turning to `CCc1cccc2c(C(=O)O)cn(S(=O)(=O)c3ccccc3)c12` [Example 168], the IC50 on human 17βHSD type 3 is above 10 µM; against human 17βHSD type 5, 85 nM.

For the compound `O=C(O)c1cn(S(=O)(=O)c2ccccc2)c2ccc(F)cc12` [Example 175], the IC50 against human 17βHSD type 3 was determined as 8.9 µM; against human 17βHSD type 5, 120 nM. The results for the concentration at 2 h in data set [1] (setting [2]) and in data set [1] (setting [4]) were 83.8 µM and 8.6 µM, respectively.

Turning to `O=C(O)c1cn(S(=O)(=O)c2ccccc2)c2ccccc12` [Example 1, 1-(phenylsulfonyl)-1H-indole-3-carboxylic acid], the concentration at 2 h in data set [1] (plasma, oral single dose 30 mg/kg, read-out: Conc (plasma)) was 17 µM; in data set [1] (setting [2]), 57.4 µM; in data set [1] (setting [3]), 145 µM; in data set [1] (prostate, oral single dose 30 mg/kg, read-out: Conc (prostate)), 5.3 µM; in data set [1] (setting [4]), 13.3 µM; in data set [1] (setting [5]), 47.4 µM.

Compound `O=C(O)c1c(Cl)n(Cc2ccc(Cl)cc2)c2ccccc12` [(1), reference compound] returned an IC50 at human 17βHSD type 5 above 10000 nM.

`CC(C)c1ccc(S(=O)(=O)n2cc(C(=O)O)c3cccc(Cl)c32)cc1` [Example 193]: the IC50 against human 17βHSD type 3 was above 10 µM; against human 17βHSD type 5, 130 nM.

For the compound `O=C(O)c1cn(S(=O)(=O)c2ccc(Br)cc2)c2ccccc12` [Example 144], the IC50 is above 10 µM against human 17βHSD type 3 and 90 nM against human 17βHSD type 5. For the same compound, the concentration at 2 h in data set [1] (setting [2]) was determined as 38.5 µM; in data set [1] (setting [3]), 79.1 µM; in data set [1] (setting [4]), 7.2 µM; in data set [1] (setting [5]), 24.8 µM.

Consider `O=C(O)c1cn(S(=O)(=O)c2ccc(Br)cc2)c2cc3c(cc12)OCO3` [Example 203], for which the IC50 is above 10 µM against human 17βHSD type 3 and 2000 nM against human 17βHSD type 5.

For `O=C(O)c1c(Cl)n(Cc2ccc(Cl)cc2Cl)c2ccccc12` [(2), reference compound], at human 17βHSD type 5, the IC50 is above 10000 nM. In addition, at human 17βHSD type 5 (summary of Table 51), the “17βHSD type 5 inhibitory activity (in words)” value is reported as “scarcely exhibited 17βHSD type 5 inhibitory activity”.

Take `Cc1ccc2c(c1)c(C(=O)O)cn2S(=O)(=O)c1ccccc1` [Example 163]: the half-maximal inhibitory concentration (IC50) is above 10 µM against human 17βHSD type 3 and 220 nM at human 17βHSD type 5. In addition, the concentration at 2 h stood at 88.8 µM in data set [1] (setting [2]) and 19.1 µM in data set [1] (setting [4]).

As for `Cc1ccc(S(=O)(=O)n2cc(C(=O)O)c3ccccc32)cc1` [Example 138], the results for the IC50 on human 17βHSD type 3 and against human 17βHSD type 5 were above 10 µM and 330 nM, respectively.

Consider `COc1ccc(S(=O)(=O)n2cc(C(=O)O)c3ccccc32)cc1` [Example 133, 1-[(4-methoxyphenyl)sulfonyl]-1H-indole-3-carboxylic acid], for which the IC50 against human 17βHSD type 3 is above 10 µM; on human 17βHSD type 5, 3100 nM.

Regarding `COc1cccc2c1c(C(=O)O)cn2S(=O)(=O)c1ccccc1` [Example 155], the results for the IC50 on human 17βHSD type 3 and against human 17βHSD type 5 were above 10 µM and 5500 nM, respectively. The concentration at 2 h in data set [1] (setting [2]) was determined as 88.4 µM; in data set [1] (setting [4]), 23 µM.
